Results reported in publication PMC7736581, “Activation of the IRE1 RNase through remodeling of the kinase front pocket by ATP-competitive ligands” (Nature Communications, 2020).

Columns and labels:
Assay in all cases: biochemical
Design in all cases: Invitrogen kinase panel: Z'Lyte activity (ATP at Km) or LanthaScreen competitive ATP-site binding, percent inhibition
PhK_gamma2 = target: T1, PhK_gamma2 (Homo sapiens, UniProt P15735)
T1 construct: gene PHKG2

CK1_delta = target: T2, CK1_delta (Homo sapiens, UniProt P48730)
T2 construct: gene CSNK1D

JNK3 = target: T3, JNK3 (Homo sapiens, UniProt P53779)
T3 construct: gene MAPK10

MuSK = MuSK (Homo sapiens, UniProt O15146)
DAPK1 = DAPK1 (Homo sapiens, UniProt P53355)
RIPK2 = RIPK2 (Homo sapiens, UniProt O43353)
InsR = InsR (Homo sapiens, UniProt P06213)
PKC_epsilon = target: T4, PKC_epsilon (Homo sapiens, UniProt Q02156)
T4 construct: gene PRKCE

MST3 = target: T5, MST3 (Homo sapiens, UniProt Q9Y6E0)
T5 construct: gene STK24

Rse = target: T6, Rse (Homo sapiens, UniProt Q06418)
T6 construct: gene TYRO3

Axl = Axl (Homo sapiens, UniProt P30530)
LRRK2 = LRRK2 (Homo sapiens, UniProt Q5S007)
HIPK4 = HIPK4 (Homo sapiens, UniProt Q8NE63)
ErbB4 = ErbB4 (Homo sapiens, UniProt Q15303)
p38_alpha(direct) = target: T7, p38_alpha(direct) (Homo sapiens, UniProt Q16539)
T7 construct: gene MAPK14; direct

HIPK2 = HIPK2 (Homo sapiens, UniProt Q9H2X6)
CK1_epsilon1 = target: T8, CK1_epsilon1 (Homo sapiens, UniProt P49674)
T8 construct: gene CSNK1E; epsilon 1

ZAK = target: T9, ZAK (Homo sapiens, UniProt Q9NYL2)
T9 construct: gene MAP3K20

CSF1R = CSF1R (Homo sapiens, UniProt P07333)
GRK3 = GRK3 (Homo sapiens, UniProt P35626)
TTK = TTK (Homo sapiens, UniProt P33981)
SGK2 = SGK2 (Homo sapiens, UniProt Q9HBY8)
ASK1 = target: T10, ASK1 (Homo sapiens, UniProt Q99683)
T10 construct: gene MAP3K5

PAK3 = PAK3 (Homo sapiens, UniProt O75914)
FGFR3 = FGFR3 (Homo sapiens, UniProt P22607)

Sequence of RIPK2 (O43353 whole entry): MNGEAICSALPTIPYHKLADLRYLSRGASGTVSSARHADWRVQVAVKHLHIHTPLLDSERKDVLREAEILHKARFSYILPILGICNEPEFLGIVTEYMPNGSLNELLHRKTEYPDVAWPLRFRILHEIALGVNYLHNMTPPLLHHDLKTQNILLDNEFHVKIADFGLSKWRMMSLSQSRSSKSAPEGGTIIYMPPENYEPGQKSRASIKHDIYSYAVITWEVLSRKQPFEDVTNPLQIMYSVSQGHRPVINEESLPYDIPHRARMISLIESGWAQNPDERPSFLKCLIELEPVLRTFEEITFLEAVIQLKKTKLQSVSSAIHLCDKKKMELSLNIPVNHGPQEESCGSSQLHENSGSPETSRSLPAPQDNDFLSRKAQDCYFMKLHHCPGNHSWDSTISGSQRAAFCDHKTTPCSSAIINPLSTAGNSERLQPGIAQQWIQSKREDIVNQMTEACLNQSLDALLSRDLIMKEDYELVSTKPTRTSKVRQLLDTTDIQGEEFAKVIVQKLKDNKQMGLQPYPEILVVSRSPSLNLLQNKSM
Sequence of HIPK4 (Q8NE63 whole entry): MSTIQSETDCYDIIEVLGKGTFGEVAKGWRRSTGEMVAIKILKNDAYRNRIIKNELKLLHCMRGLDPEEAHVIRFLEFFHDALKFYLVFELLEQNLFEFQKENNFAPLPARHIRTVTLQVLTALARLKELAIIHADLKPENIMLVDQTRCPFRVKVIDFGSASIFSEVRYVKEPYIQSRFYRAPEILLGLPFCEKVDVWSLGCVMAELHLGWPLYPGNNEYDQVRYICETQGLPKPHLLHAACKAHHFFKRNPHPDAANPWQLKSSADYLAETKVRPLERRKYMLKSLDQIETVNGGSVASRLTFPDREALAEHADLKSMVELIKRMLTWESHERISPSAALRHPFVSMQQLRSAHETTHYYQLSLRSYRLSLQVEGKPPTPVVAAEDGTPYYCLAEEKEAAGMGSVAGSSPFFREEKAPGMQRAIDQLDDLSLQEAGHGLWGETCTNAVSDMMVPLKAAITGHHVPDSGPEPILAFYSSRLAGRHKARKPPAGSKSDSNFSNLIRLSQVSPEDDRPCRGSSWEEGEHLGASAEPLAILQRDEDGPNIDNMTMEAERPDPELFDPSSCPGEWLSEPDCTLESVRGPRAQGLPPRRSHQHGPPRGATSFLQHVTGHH
Sequence of ErbB4 (Q15303 whole entry): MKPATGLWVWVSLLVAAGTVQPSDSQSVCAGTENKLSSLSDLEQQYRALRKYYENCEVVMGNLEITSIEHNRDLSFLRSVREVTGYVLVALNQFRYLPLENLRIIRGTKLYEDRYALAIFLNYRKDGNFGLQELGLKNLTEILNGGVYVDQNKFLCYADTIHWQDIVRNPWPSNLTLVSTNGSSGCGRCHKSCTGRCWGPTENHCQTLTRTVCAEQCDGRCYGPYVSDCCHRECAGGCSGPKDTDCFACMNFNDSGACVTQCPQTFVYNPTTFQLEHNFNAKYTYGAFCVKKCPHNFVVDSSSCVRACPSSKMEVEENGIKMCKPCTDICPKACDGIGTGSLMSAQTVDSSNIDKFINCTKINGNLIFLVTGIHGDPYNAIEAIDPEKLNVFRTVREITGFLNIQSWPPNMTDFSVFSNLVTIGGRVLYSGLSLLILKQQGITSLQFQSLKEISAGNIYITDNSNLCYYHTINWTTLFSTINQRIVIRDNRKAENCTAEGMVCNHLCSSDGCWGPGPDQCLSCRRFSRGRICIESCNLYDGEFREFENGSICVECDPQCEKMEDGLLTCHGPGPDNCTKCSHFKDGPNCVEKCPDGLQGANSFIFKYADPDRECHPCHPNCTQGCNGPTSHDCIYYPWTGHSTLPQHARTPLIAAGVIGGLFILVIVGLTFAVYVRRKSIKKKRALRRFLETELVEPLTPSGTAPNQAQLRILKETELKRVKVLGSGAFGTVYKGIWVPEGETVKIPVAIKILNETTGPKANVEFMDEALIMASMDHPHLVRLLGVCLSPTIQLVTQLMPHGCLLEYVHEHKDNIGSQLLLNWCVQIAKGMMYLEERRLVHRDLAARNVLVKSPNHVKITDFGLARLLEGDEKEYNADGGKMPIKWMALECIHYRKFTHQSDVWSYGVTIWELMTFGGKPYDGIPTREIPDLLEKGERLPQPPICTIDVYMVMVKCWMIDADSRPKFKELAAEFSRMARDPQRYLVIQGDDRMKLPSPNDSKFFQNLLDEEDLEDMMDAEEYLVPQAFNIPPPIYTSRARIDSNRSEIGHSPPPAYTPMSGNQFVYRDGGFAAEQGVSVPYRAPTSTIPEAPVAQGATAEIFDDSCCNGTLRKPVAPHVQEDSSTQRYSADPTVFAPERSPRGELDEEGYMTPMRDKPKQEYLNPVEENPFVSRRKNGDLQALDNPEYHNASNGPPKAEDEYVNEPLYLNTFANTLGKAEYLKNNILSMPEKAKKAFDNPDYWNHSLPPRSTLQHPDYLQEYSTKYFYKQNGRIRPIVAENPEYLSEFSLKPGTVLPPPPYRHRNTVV
Sequence of HIPK2 (Q9H2X6 whole entry): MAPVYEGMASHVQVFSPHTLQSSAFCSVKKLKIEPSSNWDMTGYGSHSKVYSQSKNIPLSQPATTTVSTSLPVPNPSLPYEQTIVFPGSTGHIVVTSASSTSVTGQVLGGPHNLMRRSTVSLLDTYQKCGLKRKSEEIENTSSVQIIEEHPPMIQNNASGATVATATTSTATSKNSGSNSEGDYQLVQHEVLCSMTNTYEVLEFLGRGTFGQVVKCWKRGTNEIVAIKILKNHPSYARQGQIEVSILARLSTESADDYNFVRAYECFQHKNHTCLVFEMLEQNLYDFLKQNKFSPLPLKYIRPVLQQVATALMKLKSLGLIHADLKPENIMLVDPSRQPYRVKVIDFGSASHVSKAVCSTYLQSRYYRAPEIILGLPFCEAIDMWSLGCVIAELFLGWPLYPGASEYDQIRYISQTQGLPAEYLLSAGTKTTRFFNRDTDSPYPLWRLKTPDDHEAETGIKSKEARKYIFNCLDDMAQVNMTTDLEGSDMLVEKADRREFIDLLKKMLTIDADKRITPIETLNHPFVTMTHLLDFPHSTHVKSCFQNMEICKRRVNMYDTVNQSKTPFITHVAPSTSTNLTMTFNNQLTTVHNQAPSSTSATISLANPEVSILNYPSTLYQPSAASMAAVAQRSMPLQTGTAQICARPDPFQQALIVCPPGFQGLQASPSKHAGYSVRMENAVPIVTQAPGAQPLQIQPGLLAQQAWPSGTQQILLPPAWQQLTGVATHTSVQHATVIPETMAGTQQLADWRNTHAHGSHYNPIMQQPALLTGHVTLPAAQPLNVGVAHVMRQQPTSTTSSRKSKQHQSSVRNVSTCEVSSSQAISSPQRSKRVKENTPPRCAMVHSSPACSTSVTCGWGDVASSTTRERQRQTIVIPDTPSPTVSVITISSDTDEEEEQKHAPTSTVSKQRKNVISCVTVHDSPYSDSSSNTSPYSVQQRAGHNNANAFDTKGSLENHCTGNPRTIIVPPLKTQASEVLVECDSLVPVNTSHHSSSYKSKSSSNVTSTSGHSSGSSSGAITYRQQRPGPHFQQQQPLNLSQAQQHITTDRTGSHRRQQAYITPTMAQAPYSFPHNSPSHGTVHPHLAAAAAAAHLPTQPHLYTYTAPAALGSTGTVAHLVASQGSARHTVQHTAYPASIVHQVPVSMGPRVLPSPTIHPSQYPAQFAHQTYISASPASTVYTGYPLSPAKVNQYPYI
T7 sequence (Q16539 whole entry): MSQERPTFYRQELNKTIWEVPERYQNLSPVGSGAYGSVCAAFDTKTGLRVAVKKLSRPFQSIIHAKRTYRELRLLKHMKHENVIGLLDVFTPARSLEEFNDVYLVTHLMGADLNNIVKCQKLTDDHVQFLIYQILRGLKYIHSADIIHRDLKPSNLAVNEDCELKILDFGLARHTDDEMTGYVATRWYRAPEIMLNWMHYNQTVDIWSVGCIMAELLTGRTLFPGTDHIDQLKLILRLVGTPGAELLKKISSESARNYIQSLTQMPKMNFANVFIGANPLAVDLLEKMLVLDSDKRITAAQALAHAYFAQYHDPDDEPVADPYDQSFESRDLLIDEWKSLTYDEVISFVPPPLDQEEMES
Sequence of TTK (P33981 whole entry): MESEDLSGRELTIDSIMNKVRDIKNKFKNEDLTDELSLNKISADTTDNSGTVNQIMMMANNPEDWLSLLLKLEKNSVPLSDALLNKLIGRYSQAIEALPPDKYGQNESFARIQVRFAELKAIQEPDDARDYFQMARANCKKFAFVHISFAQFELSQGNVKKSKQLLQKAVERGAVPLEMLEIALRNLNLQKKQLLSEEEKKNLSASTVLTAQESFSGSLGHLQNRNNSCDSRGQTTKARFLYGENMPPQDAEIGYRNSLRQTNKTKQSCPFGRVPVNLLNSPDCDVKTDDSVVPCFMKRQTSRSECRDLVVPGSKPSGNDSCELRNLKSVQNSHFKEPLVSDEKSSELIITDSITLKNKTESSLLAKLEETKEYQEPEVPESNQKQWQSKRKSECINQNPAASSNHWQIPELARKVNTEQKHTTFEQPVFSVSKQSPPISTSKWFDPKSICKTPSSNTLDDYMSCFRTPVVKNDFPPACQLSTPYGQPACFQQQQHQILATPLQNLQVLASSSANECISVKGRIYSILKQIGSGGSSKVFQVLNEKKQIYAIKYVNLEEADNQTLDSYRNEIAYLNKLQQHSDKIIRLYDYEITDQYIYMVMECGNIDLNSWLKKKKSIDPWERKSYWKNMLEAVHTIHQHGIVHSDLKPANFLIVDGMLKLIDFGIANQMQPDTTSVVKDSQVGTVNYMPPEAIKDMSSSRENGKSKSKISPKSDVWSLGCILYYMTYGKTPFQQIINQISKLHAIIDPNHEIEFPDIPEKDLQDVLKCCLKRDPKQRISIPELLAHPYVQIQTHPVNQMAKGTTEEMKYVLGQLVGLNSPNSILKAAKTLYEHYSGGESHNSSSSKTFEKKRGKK

Compound | inhibition at 1 µM (PhK_gamma2) | inhibition at 1 µM (CK1_delta) | inhibition at 1 µM (JNK3) | inhibition at 1 µM (MuSK) | inhibition at 1 µM (DAPK1) | inhibition at 1 µM (RIPK2) | inhibition at 1 µM (InsR) | inhibition at 1 µM (PKC_epsilon) | inhibition at 1 µM (MST3) | inhibition at 1 µM (Rse) | inhibition at 1 µM (Axl) | inhibition at 1 µM (LRRK2) | inhibition at 1 µM (HIPK4) | inhibition at 1 µM (ErbB4) | inhibition at 1 µM (p38_alpha(direct)) | inhibition at 1 µM (HIPK2) | inhibition at 1 µM (CK1_epsilon1) | inhibition at 1 µM (ZAK) | inhibition at 1 µM (CSF1R) | inhibition at 1 µM (GRK3) | other results
CC#CC(=O)Nc1cccc2c(Oc3ncccc3-c3ccnc(N[C@H]4CCCNC4)n3)c(C)ccc12 [G-7658] | 4% | 5.5% | 51.5% | 9.5% | -4% | 27.5% | 3% | 9.5% | -8.5% | 6.5% | -1% | 8.5% | 8% | 11.5% | 36.5% | 2.5% | 36% | 0.5% | -7.5% | -1.5% | inhibition at 1 µM (TTK): 11.5%; inhibition at 1 µM (SGK2): 1.5%; inhibition at 1 µM (ASK1): 2%; inhibition at 1 µM (PAK3): 5%; inhibition at 1 µM (FGFR3): -5%
CCOC(=O)Nc1cccc2c(Oc3ncccc3-c3ccnc(N[C@H]4CCCNC4)n3)c(C)ccc12 [G-1749] | 2.5% | 3% | 52.5% | 13.5% | -4% | 13.5% | 2.5% | 14.5% | -2% | 8.5% | -1.5% | -3.5% | 3.8% | 4.5% | 77.5% | 3% | 37% | -0.5% | 7% | -1% | inhibition at 1 µM (TTK): 16%; inhibition at 1 µM (SGK2): 3.5%; inhibition at 1 µM (ASK1): -4%; inhibition at 1 µM (PAK3): 6.5%; inhibition at 1 µM (FGFR3): -6%
